Data published in patent publication US5707987A, “Carbapenem derivatives” (Banyu Pharmaceutical Co., Ltd., priority 1994, dated 1998).
Converted amounts (≈) assume the structure as drawn. Where two headings read alike, the source gives them in different places.

Experiments:
DHP-I [1] = assay type: in vitro ADME; conditions: ratio to imipenem (=1.0); the smaller the value, the higher the stability
Source text: Further, the DHP-I susceptibility was quantitatively analyzed by the method by Kropp et al., Antimicrob. Agents Chemother., vol. 22, pp. 62-70 (1982), whereby the smaller the numerical value representing the ratio to imipenem (=1.0), the higher the stability.
The DHP-1 susceptibility of the compounds of the present invention were compared with imipenem.

S. aureus BB5939 = assay: In vitro antibacterial activity, agar plate dilution method (MIC); assay type: cell-based; conditions: Staphylococcus aureus, read-out: Minimum Inhibitory Concentration (MIC)
Experimental: (§1) One platinum loopful of each test microorganism incubated overnight in Mueller Hinton broth, was inoculated to Mueller Hinton agar (inoculum size: 10^6 CFU/ml). Such culture media contained antibacterial agents in various concentrations. […] The minimum inhibitory concentrations of the compounds of the present invention were compared with imipenem.

S. aureus pMS520/Smith = assay: as above; assay type: cell-based; conditions: Staphylococcus aureus, 16 h, read-out: Minimum Inhibitory Concentration (MIC)
Experimental: as §1

[2] = test system: highly methicillin-resistant Staphylococcus aureus resistant to imipenem and imipenem-resistant Pseudomonas aeruginosa; conditions: background statement; cited from earlier work
DHP-I [3] = conditions: background statement; cited from earlier work
[4] = cited from earlier work
kidney = conditions: background statement; cited from earlier work
[5] = test system: gram positive bacteria and gram negative bacteria; conditions: background statement; cited from earlier work
β-lactamase = conditions: background statement; cited from earlier work
[6] = test system: renal dehydropeptidase I (DHP-I); conditions: in vivo; cited from earlier work
[7] = background statement; cited from earlier work
[8] = S. aureus BB5939 (β-lactamase-producing bacterium per footnote), inoculum 10^6 CFU/ml, Mueller Hinton agar, 37° C., 16 hours

| Structure (SMILES) | DHP-I susceptibility (DHP-I [1]) | MIC (S. aureus pMS520/Smith) [µg/mL] | MIC (S. aureus BB5939; [8]) [µg/mL] | other results |
| --- | --- | --- | --- | --- |
| C[C@@H](O)[C@H]1C(=O)N2C(C(=O)[O-])=C(S[C@@H]3CN[C@H](CSc4ccccc4)C3)[C@H](C)[C@H]12.[Na+] | 0.15 | 1.56 | – | MIC (S. aureus BB5939; BB5939, 16 h): 0.39 µg/mL |
| C[C@@H](O)[C@H]1C(=O)N2C(C(=O)O)=C(S[C@@H]3CN[C@H](C(O)c4ccc(-c5ccc(CN)cc5)cc4)C3)[C@H](C)[C@H]12 (single isomer, unassigned; diastereomer i) [Example 140] | < 0.05 | 1.56 (≈ 2.98 µM) | 0.78 (≈ 1.49 µM) | – |
| C[C@@H](O)[C@H]1C(=O)N2C(C(=O)O)=C(S[C@@H]3CN[C@H](CNc4ccc(CN)cc4)C3)[C@H](C)[C@H]12.Cl [Example 121, (1R,5S,6S)-2-[(3S,5S)-5-[4-(Aminomethyl)anilinomethyl]-pyrrolidin-3-ylthio]-6-[(R)-1-hydroxyethyl]-1-methyl-1-carbapen-2-em-3-carboxylic acid monohydrochloride] | 0.15 | 1.56 | 0.39 | – |
| C[C@@H](O)[C@H]1C(=O)N2C(C(=O)O)=C(S[C@@H]3CN[C@H](COc4ccc(CN)cc4)C3)[C@H](C)[C@H]12.Cl [Example 127, (1R,5S,6S)-2-[(3S,5S)-5-[4-(Aminomethyl)phenoxymethyl]-pyrrolidin-3-ylthio]-6-[(R)-1-hydroxyethyl]-1-methyl-1-carbapen-2-em-3-carboxylic acid monohydrochloride] | 0.15 | 3.13 | 0.78 | – |
| C[C@@H](O)[C@H]1C(=O)N2C(C(=O)O)=C(S[C@@H]3CN[C@H](COc4ccccc4)C3)[C@H](C)[C@H]12 [Example 128, (1R,5S,6S)-6-[(R)-1-Hydroxyethyl]-1-methyl-2-[(3S,5S)-5-(phenoxymethyl)pyrrolidin-3-ylthio]-1-carbapen-2-em-3-carboxylic acid] | 0.16 | – | – | – |
| C[C@@H](O)[C@H]1C(=O)N2C(C(=O)O)=C(S[C@@H]3CN[C@H](Cc4ccc(CN)cc4)C3)[C@H](C)[C@H]12 [Example 131] | < 0.05 | 3.13 (≈ 7.25 µM) | 0.78 (≈ 1.81 µM) | – |
| C=CCN1C[C@@H](SC2=C(C(=O)O)N3C(=O)[C@H]([C@@H](C)O)[C@H]3[C@H]2C)C[C@H]1Cc1cccc2ccccc12 [Example 137, (1R,5S,6S)-2-[(3S,5R)-N-Allyl-5-(1-naphthylmethyl)pyrrolidin-3-ylthio]-6-[(R)-1-hydroxyethyl]-1-methyl-1-carbapen-2-em-3-carboxylic acid] | < 0.05 | – | – | – |
| C[C@@H](O)[C@H]1C(=O)N2C(C(=O)O)=C(SCCN=CN)C[C@H]12 [Imipenem, (5R,6S)-3-[2-(formimidoylamino)ethylthie]-6-[(R)-1-hydroxyethyl]-7-oxo-1-azabicyclo[3.2.0]hept-2-en-2-carboxylic acid monohydrate] | 1.0 | > 25 | – | treating effects against resistant bacteria [2]: does not show adequate treating effects against these resistant bacteria; decomposition by DHP-I in the human kidney (DHP-I [3]): likely to be decomposed by DHP-I in the human kidney; stability in the solid form or in an aqueous solution ([4]; vs thienamycin): remarkably improved over thienamycin; MIC (S. aureus BB5939; BB5939, 16 h): 6.25 µg/mL; toxicity against the kidney (kidney): presents toxicity against the kidney; antibacterial activities [5]: antibacterial activities of an equal or higher level than thienamycin; β-lactamase resistance (β-lactamase): β-lactamase resistance |
| C[C@@H](O)[C@H]1C(=O)N2C(C(=O)O)=C(SCCN)C[C@H]12 [thienamycin] | – | – | – | decomposition by renal dehydropeptidase I [6]: likely to be decomposed; recovery rate in the urine [7]: low; decomposition by DHP-I in the human kidney (DHP-I [3]): likely to be decomposed by DHP-I in the human kidney; chemical stability ([4]; background statement): chemically unstable; antibacterial activities [5]: excellent antibacterial spectrum and strong antibacterial activities |
| CN[C@H](CC(C)C)C(=O)N[C@H]1C(=O)N[C@@H](CC(N)=O)C(=O)N[C@H]2C(=O)N[C@H]3C(=O)N[C@H](C(=O)N[C@H](C(=O)O)c4cc(O)cc(O)c4-c4cc3ccc4O)[C@H](O)c3ccc(c(Cl)c3)Oc3cc2cc(c3O[C@@H]2O[C@H](CO)[C@@H](O)[C@H](O)[C@H]2O[C@H]2C[C@](C)(N)[C@H](O)[C@H](C)O2)Oc2ccc(cc2Cl)[C@H]1O [vancomycin] | – | – | – | toxicity against the kidney (kidney): strong toxicity |
